Measured values taken from patent US7655626B2, “Antiangiogenic peptides” (Universite de Liege, priority 2004, dated 2010).

Key:
[1] = Secondary structure by ATR-FTIR; type: physicochemical; details: peptide dissolved in 100% DMSO
Description: The conformation of the peptide in solution is analyzed by Fourier transformed infrared spectroscopy (ATR-FTIR). The sample (20 μg) is spread on a Germanium plate and spectra are recorded between 1800 and 1000 cm−1. The deconvolution of the 1700-1600 cm−1 area, corresponding to the amide I band, allows the determination of the secondary structure of the peptide (Goormaghtigh, E., et al. Biochim Biophys Acta 1422:[…] (1999)). The secondary structure of the peptide is given Table 3. Tilted peptides are often in β structure in solution, while being helical in the presence of lipids (Martin, I., et al. Biochem Biophys Res Commun 175:872-9 (1991)).

[2] = Lipid phase (liposome) fusion, R18 fluorescence; details: for Relative liposome fusion, pH 8 UC / Relative liposome fusion, pH 4 UC / Relative liposome fusion, pH 6 UC: uncharged liposomes; for Relative liposome fusion, pH 4 C / Relative liposome fusion, pH 6 C / Relative liposome fusion, pH 8 C: charged liposomes
Description: Lipid phase fusion was measured by following the fluorescence of a liposoluble marker, R18. When incorporated into liposomes at a high surface density, R18 fluorescence is attenuated. Upon dilution of the marker through membrane fusion of labeled and unlabeled liposomes, the attenuation is relieved and R18 fluorescence increases. Labeled liposomes were prepared by blending R18 into the lipid film (see table 1). Labeled and unlabeled liposomes were mixed in a 1:4 ratio (w/w) and diluted to a concentration of 50 μM. Fluorescence is measured at room temperature (excitation λ: 560 nm, emission λ: 590 nm) on a Perkin Elmer LS-50B fluorimeter. The ability of PO-PRL to induce liposome fusion was analyzed in two different liposome preparations at different pH (table 1).
The following buffers were used: pH 8 buffer (10 mM Tris-HCl, pH=8; 150 mM NaCl; 0.01% EDTA; 1 mM NaN3), pH 6 buffer (10 mM Sodium-Acetate, pH=6; 150 mM NaCl; 0.01% EDTA; 1 mM NaN3), pH 4 buffer (10 mM Sodium Acetate, pH=4; 57 mM Acetic Acid)
The following concentrations of the peptide were used: • 600 μM corresponding to a molar peptide/lipid ratio (R) of 0.2 • 300 μM corresponding to a peptide/lipid ratio (R) of 0.1 • 150 μM corresponding to a peptide/lipid ratio (R) of 0.05 • 60 μM corresponding to a peptide/lipid ratio (R) of 0.02 • 30 μM corresponding to a peptide/lipid ratio (R) of 0.01.

[3] = tested on: B16-F10 murine melanoma cells; experiment: Viability assay (calcein-AM), B16-F10; type: cell-based; details: 10 nM; 72 h
Description: (§1) In order to determine whether the effect of tilted peptides exerted on endothelial cells is cell specific, a viability assay was performed on BACE and ABAE endothelial cells and on two tumoral cells lines, the B16-F10 murine melanoma cells and the MDA-MB-231 human breast cancer cell. Viable cells are detected by the presence of intracellular esterase, determined by the enzymatic conversion of non fluorescent calcein AM (an ester derivative) into fluorescent calcein.
(§2) To determine whether the activity of the MBP-PO-PRL and MBP-PO-GH is specific for endothelial cells, their ability to affect viability of B16-F10 and MDA-MB-231 cell line was determined. 25000 MDA-MB-231 cells and B16-F10 cells were plated in 24-well plates, respectively in 0.5 ml 10% FCS/RPMI medium and in 10% FCS/DMEM 4500 medium. The cells were treated with recombinant proteins or campthotecin for 72 h. Cells were washed, incubated with calcein-AM and fluorescence determined as described above.

[4] = tested on: MDA-MB-231 human breast cancer cell; experiment: Viability assay (calcein-AM), MDA-MB-231; type: cell-based; details: 10 nM; 72 h
Description: as §1, §2

BACE cells [5] = experiment: Apoptosis by flow cytometry (propidium iodide, sub-G1 population); type: cell-based, Bovine; details: 10 nM; 18-h treatment; untreated cells 1%
Description: In order to determine the effect of MPB-PO-PRL on endothelial cell apoptosis, the inventors have analyzed the DNA content of MBP-PO-PRL treated cells by flow cytometry. For this purpose, DNA was labeled with propidium iodide. Bovine adrenal cortex endothelial (BACE) cells were plated in low-glucose Dulbbecco's modified Eagle's medium containing 10% fetal calf serum (FCS) and 100 U/ml penicillin/streptomycin per ml (10% FCS medium) at a density of cells 5×10^5/100 mm plate. 24 h after plating, cells were treated for 18 h with the proteins of interest. The cells were then harvested and fixed and permeabilized in ice-cold ethanol for 2 h before centrifugation and incubation (at 37° C. for 30 min) in PBS containing Rnase (5 μg/ml) and propidium iodide (50 μg/ml). The cells were analysed using a Coulter Epics XL flow cytometer.

BACE cells [6] = experiment: In vitro capillary formation, collagen gel assay; type: cell-based, Bovine; details: 10 nM
Description: In order to further analyze the ability of the MBP-PO-PRL to prevent angiogenesis in vitro, its capacity to prevent capillary formation was analyzed in a collagen gel assay. This assay was performed as follows: 20000 cells were plated between two collagen gels (5 volumes rat tail collagen, 1 volume 10×M199 medium, 50 mM NaHCO3). Gels were overlaid with 10% FBS medium containing or not recombinant proteins of interest.

In the case of FLSLIVSILRSWNE [PO-PRL], the “Secondary structure: Alpha” value [1] is reported as 16%, the “Secondary structure: Beta” value [1] is reported as 63% and the “Secondary structure: Coil” value [1] is reported as 9%. The “Secondary structure: Turn” value [1] was 12%, the “Relative liposome fusion, pH 8 UC” value ([2]; R 0.05 (150 μM), 15 min) was 38% and the “Relative liposome fusion, pH 4 C” value ([2]; R 0.05, 15 min) was 35%. The “Relative liposome fusion, pH 4 UC” value ([2]; R 0.05, 15 min) was 100%, the “Relative liposome fusion, pH 6 C” value ([2]; R 0.05, 15 min) was 35% and the “Relative liposome fusion, pH 6 UC” value ([2]; R 0.05, 15 min) was 38%. For the same molecule, the “Relative liposome fusion, pH 8 C” value ([2]; R 0.05, 15 min) was 34%, the “Relative liposome fusion, pH 8 UC” value ([2]; R 0.1 (300 μM), 15 min) was 64% and the “Relative liposome fusion, pH 4 C” value ([2]; R 0.1, 15 min) was 34%. For the same molecule, the “Relative liposome fusion, pH 4 UC” value ([2]; R 0.1, 15 min) was 105%, the “Relative liposome fusion, pH 6 C” value ([2]; R 0.1, 15 min) was 44% and the “Relative liposome fusion, pH 6 UC” value ([2]; R 0.1, 15 min) was 55%. The “Relative liposome fusion, pH 8 C” value ([2]; R 0.1, 15 min) was 41%, the “Relative liposome fusion, pH 4 C” value ([2]; R 0.2, 15 min) was 47% and the “Relative liposome fusion, pH 4 UC” value ([2]; R 0.2, 15 min) was 97%. For the same molecule, the “Relative liposome fusion, pH 6 C” value ([2]; R 0.2, 15 min) was 87%, the “Relative liposome fusion, pH 6 UC” value ([2]; R 0.2, 15 min) was 68% and the “Relative liposome fusion, pH 8 C” value ([2]; R 0.2, 15 min) was 64%. For the same molecule, the “Relative liposome fusion, pH 8 UC” value ([2]; R (peptide/lipid) 0.2 (600 μM), after 15 min, reference set at 100%) was 100%.

B1: 16K hPRL: 16 kDa N-terminal fragment of human prolactin, positive control (protein)
chain: LPICPGGAARCQVTLRDLFDRAVVLSHYIHNLSSEMFSEFDKRYTHGRGFITKAINSCHTSSLATPEDKEQAQQMNQKDFLSLIVSILRSWNEPLYHLVTEVRGMQEAPEAILSKAVEIEEQTKRLLEGMELIVSQVHP
For B1, the cell viability [3] was “do not affect viability”, the cell viability [4] was “do not affect viability” and the “percentage of sub-G1 cell population” value (BACE cells [5]) was 55,9%. The “capillary formation in collagen gel” value (BACE cells [6]) was “prevents capillary formation”.
